Our source for the target mRNA inhibition values is the OligoGym collection.

“And” between values parts separate entries of the source, which are not always exact repeats. Identical values can stand only once. After the bases stand the sugars from the 5' end (letter, count) and the backbone: PS all phosphorothioate, else s phosphorothioate and o phosphodiester by linkage. Methylation of C is not given here. k = constrained ethyl (cEt); d = 2'-deoxy (DNA)

The data set deals with MALAT1. Particulars: ASO, A431, 0.005 µM.
Consider ACATGCCAGTTACTCC (sugars k3 d10 k3, PS), for which the target mRNA inhibition was found to be 39%. Turning to TTACTTCCGTTACGAA (sugars k3 d10 k3, PS), the target mRNA inhibition was -8%. Turning to CAGTAGTAAGAATCTC (sugars k3 d10 k3, PS), the target mRNA inhibition is 54%. The value for GACGGTTGAGAAGTGG (sugars k3 d10 k3, PS) was 25%; that for TTCAAGCATTCCTTCG (sugars k3 d10 k3, PS) was 62%; that for TATTCCCCAATGGAGG (sugars k3 d10 k3, PS) was 17%. The value for CGTGAGAACTGCTCTA (sugars k3 d10 k3, PS) was 37%; that for TCGCACTGGCTCCTGG (sugars k3 d10 k3, PS) was 42%. Regarding CAATCCTGAAATCCCC (sugars k3 d10 k3, PS), the target mRNA inhibition came out at 16%. As to GCAAGTTAAACTTATC (sugars k3 d10 k3, PS), the target mRNA inhibition was found to be 42%.

Take TACTTGTCTTAGCTTG (sugars k3 d10 k3, PS): the target mRNA inhibition came out at 51%. The value for CGCTTTTATTCTGCTT (sugars k3 d10 k3, PS) was 6%; that for GGCTGGTTATGACTCA (sugars k3 d10 k3, PS) was 40%.

For ACCGTTTTTCAGCTTC (sugars k3 d10 k3, PS), the target mRNA inhibition is -30%. In the case of ATCCCCCCCAAGATTG (sugars k3 d10 k3, PS), the target mRNA inhibition came to 5%.

Regarding CTGTTAAGACCATCCC (sugars k3 d10 k3, PS), the target mRNA inhibition came to 46%. With GTCAATTTATAGACCC (sugars k3 d10 k3, PS), the target mRNA inhibition came to 18%.

CAGCACATCATGCTAT (sugars k3 d10 k3, PS): the target mRNA inhibition was found to be 15%. The value for TGGTGAATTCAACTGG (sugars k3 d10 k3, PS) was 33%; that for TAAAGTCTGATTAAGG (sugars k3 d10 k3, PS) was 4%. The value for TTAGTAGCTTTTTGAT (sugars k3 d10 k3, PS) was 39%; that for TCAATGCCTACCGCAC (sugars k3 d10 k3, PS) was 3%. The value for AGCTGAGGCTTCCCGG (sugars k3 d10 k3, PS) was 12%. Regarding TTATCTAAATACCACC (sugars k3 d10 k3, PS), the target mRNA inhibition is 2%.

On to TTAATGTCAGCCCAGT (sugars k3 d10 k3, PS), for which the target mRNA inhibition was determined as 37%. AGAGTAACTACCAGCC (sugars k3 d10 k3, PS): the target mRNA inhibition is 55% and 76%. The value for TTCGCTTTTATTCTGC (sugars k3 d10 k3, PS) was 69% and 88%; that for TCATCAAACACTGGTT (sugars k3 d10 k3, PS) was 36%. The value for TACATCAAGGATGTAT (sugars k3 d10 k3, PS) was 2%; that for GCCAAGCCAAGCCGCC (sugars k3 d10 k3, PS) was 14%. The value for GGCTTTAAATGACGCA (sugars k3 d10 k3, PS) was 17%; that for CAGTACTGCATTTACT (sugars k3 d10 k3, PS) was 20%; that for TCGCTTTTATTCTGCT (sugars k3 d10 k3, PS) was 22%. With GGCTATTACCTGAAAA (sugars k3 d10 k3, PS), the target mRNA inhibition is 6%. With ACCTGGAATGGCCAGC (sugars k3 d10 k3, PS), the target mRNA inhibition stood at 21%. As for GAGAAGAATCCCCCCC (sugars k3 d10 k3, PS), the target mRNA inhibition was 17%. The value for ACACCCGGAAATCGGC (sugars k3 d10 k3, PS) was 8%; that for TAGTTCAACCCACCAA (sugars k3 d10 k3, PS) was -14%. As for TTTACCAACCACTCGC (sugars k3 d10 k3, PS), the target mRNA inhibition worked out at 18%. The value for TTTCATCCTACCACTC (sugars k3 d10 k3, PS) was 27%. The value for GTAAGCCCCACCCCCT (sugars k3 d10 k3, PS) was -35%; that for ATAGACCCCTGACTTT (sugars k3 d10 k3, PS) was 34%; that for CTATCTTCACCACGAA (sugars k3 d10 k3, PS) was 40%.

On to GAAACCTACAACACCC (sugars k3 d10 k3, PS), for which the target mRNA inhibition came to 20%. The value for CAAAGATATTGTGCTG (sugars k3 d10 k3, PS) was -10%; that for GTCTGAGGCAAACGAA (sugars k3 d10 k3, PS) was 29%; that for GCAGGGACGGTTGAGA (sugars k3 d10 k3, PS) was 8%.

As to TAATGCACTGGTACAC (sugars k3 d10 k3, PS), the target mRNA inhibition was -22%.

For GAAGTCTCGGGCTGCA (sugars k3 d10 k3, PS), the target mRNA inhibition was 6%. In the case of GCTCTATACTTTGAAG (sugars k3 d10 k3, PS), the target mRNA inhibition amounted to 51%.

On to CTTCGGTTAAAAATAG (sugars k3 d10 k3, PS), for which the target mRNA inhibition worked out at 4%. The value for ATCCTCTACGCACAAC (sugars k3 d10 k3, PS) was 42%; that for ACCCAGCATTACAGTT (sugars k3 d10 k3, PS) was 8%; that for CTGGCATGCTGGTCTA (sugars k3 d10 k3, PS) was 19%. The value for CTCCCCTTCAAGCACC (sugars k3 d10 k3, PS) was 4%; that for TGTAAACCTGTGGTGG (sugars k3 d10 k3, PS) was 48%; that for GTTAAAAACTTAACGC (sugars k3 d10 k3, PS) was 4%. The value for AGATTGTAAGCATTTA (sugars k3 d10 k3, PS) was 42%; that for ACCACCACCTGGAATG (sugars k3 d10 k3, PS) was 22%; that for GAATTACTTCCGTTAC (sugars k3 d10 k3, PS) was 36%.

As to TACTTTCCATTACGCA (sugars k3 d10 k3, PS), the target mRNA inhibition was determined as 16%. The value for ACAGTAGGTATAGTTT (sugars k3 d10 k3, PS) was 24%; that for ATTAAGAGCTGCTATA (sugars k3 d10 k3, PS) was -4%. ATAGTTCAACCCACCA (sugars k3 d10 k3, PS): the target mRNA inhibition is 21%. Consider ACCCCTGACTTTCTGG (sugars k3 d10 k3, PS), for which the target mRNA inhibition was 18%. The value for GAACCGGAGCAGGAAG (sugars k3 d10 k3, PS) was 28%; that for CAAATTAATGCACTGG (sugars k3 d10 k3, PS) was 15%. The value for AACCGTAACAGGCCAC (sugars k3 d10 k3, PS) was 50%; that for ACTAAGCTACTATATT (sugars k3 d10 k3, PS) was 39%; that for TACCATAAGTAAGTTC (sugars k3 d10 k3, PS) was 4%. The value for AATCAAGTCAAGCTCC (sugars k3 d10 k3, PS) was 14%; that for GCACTTTTAAAGTCTG (sugars k3 d10 k3, PS) was 74% and 91%; that for GAAGAGCCAAGCACTC (sugars k3 d10 k3, PS) was -9%. With AGTGTACTATCCCATC (sugars k3 d10 k3, PS), the target mRNA inhibition was 78% and 91%. The value for GAAGAATACCATCTGA (sugars k3 d10 k3, PS) was 5%. As to TTTTAAACGGGTCATC (sugars k3 d10 k3, PS), the target mRNA inhibition is 17%. The value for CTGTCTGAGGCAAACG (sugars k3 d10 k3, PS) was 37%; that for ATCTTAGTAACCTATT (sugars k3 d10 k3, PS) was 17%; that for CTCGCCTCCTCCGTGT (sugars k3 d10 k3, PS) was 10%.

Consider CACCTGGGTCAGCTGT (sugars k3 d10 k3, PS), for which the target mRNA inhibition was found to be 25%. The value for TTCCTTCGGATGCTTC (sugars k3 d10 k3, PS) was 50%. The value for CAGAAGCCCCTGCGCT (sugars k3 d10 k3, PS) was 3%; that for ACTCCAAGAACTAGCA (sugars k3 d10 k3, PS) was 11%; that for TGGGAGTTACTTGCCA (sugars k3 d10 k3, PS) was 19%. The value for TCTGAAGAATACCATC (sugars k3 d10 k3, PS) was 15%; that for CCAATATTTGCCCCTC (sugars k3 d10 k3, PS) was 40%; that for CAGGGTTATGCTTATT (sugars k3 d10 k3, PS) was 75% and 66%.

On to CCCCACGGCCCGCACG (sugars k3 d10 k3, PS), for which the target mRNA inhibition is -9%. For AAAAGGCTCGATGGAA (sugars k3 d10 k3, PS), the target mRNA inhibition was found to be 11%. The value for GTCTAGGATCCTCTAC (sugars k3 d10 k3, PS) was 14%; that for GATTCATGAGTATAAG (sugars k3 d10 k3, PS) was 50%; that for ACGGAGAACAACTCGC (sugars k3 d10 k3, PS) was 1%.

In the case of ATCCTACCACTCCCAA (sugars k3 d10 k3, PS), the target mRNA inhibition is 34%. Regarding TTCAAACTAAGCTACT (sugars k3 d10 k3, PS), the target mRNA inhibition is 31%. The value for GCCTTGCAGGGACGGT (sugars k3 d10 k3, PS) was -10%; that for CCTGTTAAGACCATCC (sugars k3 d10 k3, PS) was 40%; that for ATGCACTAAAGATCAC (sugars k3 d10 k3, PS) was 34%. CAACAGCACAGCGGTA (sugars k3 d10 k3, PS): the target mRNA inhibition is -5%. As to TAAAGAGTGTTCGCAG (sugars k3 d10 k3, PS), the target mRNA inhibition turned out to be 51%.
